Results as given in patent publication US12246008B2, “4-amino or 4-alkoxy-substituted aryl sulfonamide compounds with selective activity in voltage-gated sodium channels” (Merck Sharp & Dohme LLC, priority 2018, dated 2025).
Like-named read-outs stand apart in the source and are kept apart here.

Tests used:
Assay in all cases: Qube automated patch-clamp assay, inhibition of sodium current
Format in all cases: cell-based
[1] = target: T1, human Nav1.6 channels stably expressed in HEK 293 cells (Homo sapiens, UniProt Q9UQD0); conditions: holding potential −65 mV; max concentration tested 33750 nM
T1 construct: expressed in transfected cells; host or cells: HEK 293
T1 sequence (Q9UQD0 whole entry): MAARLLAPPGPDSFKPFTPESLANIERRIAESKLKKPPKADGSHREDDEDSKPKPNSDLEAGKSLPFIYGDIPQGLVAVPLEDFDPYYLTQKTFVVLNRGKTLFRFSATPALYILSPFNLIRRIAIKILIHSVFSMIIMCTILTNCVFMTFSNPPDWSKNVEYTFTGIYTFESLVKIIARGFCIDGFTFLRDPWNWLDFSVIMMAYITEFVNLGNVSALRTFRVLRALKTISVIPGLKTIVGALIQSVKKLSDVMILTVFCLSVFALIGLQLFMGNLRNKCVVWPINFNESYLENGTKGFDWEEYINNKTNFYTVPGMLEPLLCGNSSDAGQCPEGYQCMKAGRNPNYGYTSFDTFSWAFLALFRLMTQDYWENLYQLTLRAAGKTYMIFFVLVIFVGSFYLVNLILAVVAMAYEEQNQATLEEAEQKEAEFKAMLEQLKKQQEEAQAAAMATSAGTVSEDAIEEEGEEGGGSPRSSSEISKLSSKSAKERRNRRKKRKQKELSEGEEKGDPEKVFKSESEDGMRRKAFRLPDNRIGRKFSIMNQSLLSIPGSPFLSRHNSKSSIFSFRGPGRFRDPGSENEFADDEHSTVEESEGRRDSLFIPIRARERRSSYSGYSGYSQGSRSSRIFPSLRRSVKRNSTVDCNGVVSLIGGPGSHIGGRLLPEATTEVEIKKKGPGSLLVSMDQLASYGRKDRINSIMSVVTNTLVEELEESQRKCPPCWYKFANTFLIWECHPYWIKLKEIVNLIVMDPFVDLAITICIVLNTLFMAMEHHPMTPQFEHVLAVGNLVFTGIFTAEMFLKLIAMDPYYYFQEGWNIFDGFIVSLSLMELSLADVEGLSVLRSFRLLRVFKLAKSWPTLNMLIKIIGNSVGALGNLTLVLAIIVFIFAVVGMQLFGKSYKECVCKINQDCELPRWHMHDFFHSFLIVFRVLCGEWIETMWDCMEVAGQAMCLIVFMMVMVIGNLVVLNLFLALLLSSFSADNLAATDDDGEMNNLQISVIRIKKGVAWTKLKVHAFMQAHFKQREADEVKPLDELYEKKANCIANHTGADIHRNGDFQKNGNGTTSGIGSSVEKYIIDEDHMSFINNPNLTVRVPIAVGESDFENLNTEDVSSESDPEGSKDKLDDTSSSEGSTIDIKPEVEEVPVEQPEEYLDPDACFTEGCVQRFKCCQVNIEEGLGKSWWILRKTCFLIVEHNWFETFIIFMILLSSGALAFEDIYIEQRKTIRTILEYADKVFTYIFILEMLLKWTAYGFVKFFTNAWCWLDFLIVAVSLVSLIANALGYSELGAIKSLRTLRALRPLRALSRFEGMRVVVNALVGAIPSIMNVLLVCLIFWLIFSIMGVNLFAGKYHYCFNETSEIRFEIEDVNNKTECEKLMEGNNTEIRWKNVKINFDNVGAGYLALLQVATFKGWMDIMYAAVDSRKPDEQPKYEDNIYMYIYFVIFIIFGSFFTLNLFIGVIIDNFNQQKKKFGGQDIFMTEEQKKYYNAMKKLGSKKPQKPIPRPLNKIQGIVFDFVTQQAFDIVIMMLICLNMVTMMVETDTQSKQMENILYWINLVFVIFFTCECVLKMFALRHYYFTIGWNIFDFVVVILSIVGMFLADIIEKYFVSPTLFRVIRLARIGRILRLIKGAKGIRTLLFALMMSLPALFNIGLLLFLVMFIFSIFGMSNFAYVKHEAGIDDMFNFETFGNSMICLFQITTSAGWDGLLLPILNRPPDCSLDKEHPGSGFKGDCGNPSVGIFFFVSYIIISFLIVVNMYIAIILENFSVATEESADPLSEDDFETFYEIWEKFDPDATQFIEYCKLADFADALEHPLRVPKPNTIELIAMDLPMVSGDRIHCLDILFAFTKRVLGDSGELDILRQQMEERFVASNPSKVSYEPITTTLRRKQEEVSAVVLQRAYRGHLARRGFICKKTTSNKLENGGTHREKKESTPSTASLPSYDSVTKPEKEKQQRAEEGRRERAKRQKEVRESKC
Description: (§1) Qube™ Experimental Procedure:
(§2) Compounds were tested on human Nav1.7 and Nav1.6 channels stably expressed in HEK 293 cells. […] Cells were sealed on a planar substrate using the multihole technology. Cells expressing human Nav1.7 channels were held at −75 mV or −80 mV. Cells expressing human Nav1.6 channels were held at −65 mV. A train of 6 consecutive test pulses to −10 mV, preceded by 8 s prepulses to −115 mV, was applied at a frequency of 0.1 Hz before and after compound addition. Cells in each Qchip well were incubated in compound for 5 minutes before measuring inhibition. Peak currents were measured in control conditions and after compound addition. The following recording solutions were used (mM). External Nav1.6: 150 NaCl, 2 CaCl2), 5 KCl, 1 Mg Cl2, 10 HEPES, 12 Dextrose; external Nav1.7: 40 NaCl, 120 NMDG, 1 KCl, 0.5 MgCl2, 5 HEPES, 2.7 CaCl2); internal: 120 CsF, 30 CsCl, 10 EGTA, 5 HEPES, 5 NaF, 2 MgCl2. Compounds were prepared as 10 mM stock solutions in DMSO. 10 point compound titrations were generated using the Echo acoustic liquid handling instrument and glass coated 384 well plates. The final DMSO concentration in the assay was 0.3%. For all electrophysiology experiments, offline analysis was used to determine percent inhibition as a function of drug concentration. IC50 values were determined by fitting to the Hill equation.
(§3) The various compounds in EXAMPLES 1 through 43 and TABLE 2 exemplified above were assayed for activity and selectivity using the foregoing Qube® technique. The results are reported in TABLE 3 in a format expressing the identification of the compound with reference EXAMPLE followed by the observed potency in nM for NaV1.7, NaV1.6 and NaV1.5. NA signifies not applicable and the max concentration tested is 33750 nM.

[2] = target: T2, human Nav1.7 channels stably expressed in HEK 293 cells (Homo sapiens, UniProt Q15858); conditions: max concentration tested 33750 nM, read-out: NaV1.7 (nM)
T2 construct: expressed in transfected cells; host or cells: HEK 293
T2 sequence (Q15858 whole entry): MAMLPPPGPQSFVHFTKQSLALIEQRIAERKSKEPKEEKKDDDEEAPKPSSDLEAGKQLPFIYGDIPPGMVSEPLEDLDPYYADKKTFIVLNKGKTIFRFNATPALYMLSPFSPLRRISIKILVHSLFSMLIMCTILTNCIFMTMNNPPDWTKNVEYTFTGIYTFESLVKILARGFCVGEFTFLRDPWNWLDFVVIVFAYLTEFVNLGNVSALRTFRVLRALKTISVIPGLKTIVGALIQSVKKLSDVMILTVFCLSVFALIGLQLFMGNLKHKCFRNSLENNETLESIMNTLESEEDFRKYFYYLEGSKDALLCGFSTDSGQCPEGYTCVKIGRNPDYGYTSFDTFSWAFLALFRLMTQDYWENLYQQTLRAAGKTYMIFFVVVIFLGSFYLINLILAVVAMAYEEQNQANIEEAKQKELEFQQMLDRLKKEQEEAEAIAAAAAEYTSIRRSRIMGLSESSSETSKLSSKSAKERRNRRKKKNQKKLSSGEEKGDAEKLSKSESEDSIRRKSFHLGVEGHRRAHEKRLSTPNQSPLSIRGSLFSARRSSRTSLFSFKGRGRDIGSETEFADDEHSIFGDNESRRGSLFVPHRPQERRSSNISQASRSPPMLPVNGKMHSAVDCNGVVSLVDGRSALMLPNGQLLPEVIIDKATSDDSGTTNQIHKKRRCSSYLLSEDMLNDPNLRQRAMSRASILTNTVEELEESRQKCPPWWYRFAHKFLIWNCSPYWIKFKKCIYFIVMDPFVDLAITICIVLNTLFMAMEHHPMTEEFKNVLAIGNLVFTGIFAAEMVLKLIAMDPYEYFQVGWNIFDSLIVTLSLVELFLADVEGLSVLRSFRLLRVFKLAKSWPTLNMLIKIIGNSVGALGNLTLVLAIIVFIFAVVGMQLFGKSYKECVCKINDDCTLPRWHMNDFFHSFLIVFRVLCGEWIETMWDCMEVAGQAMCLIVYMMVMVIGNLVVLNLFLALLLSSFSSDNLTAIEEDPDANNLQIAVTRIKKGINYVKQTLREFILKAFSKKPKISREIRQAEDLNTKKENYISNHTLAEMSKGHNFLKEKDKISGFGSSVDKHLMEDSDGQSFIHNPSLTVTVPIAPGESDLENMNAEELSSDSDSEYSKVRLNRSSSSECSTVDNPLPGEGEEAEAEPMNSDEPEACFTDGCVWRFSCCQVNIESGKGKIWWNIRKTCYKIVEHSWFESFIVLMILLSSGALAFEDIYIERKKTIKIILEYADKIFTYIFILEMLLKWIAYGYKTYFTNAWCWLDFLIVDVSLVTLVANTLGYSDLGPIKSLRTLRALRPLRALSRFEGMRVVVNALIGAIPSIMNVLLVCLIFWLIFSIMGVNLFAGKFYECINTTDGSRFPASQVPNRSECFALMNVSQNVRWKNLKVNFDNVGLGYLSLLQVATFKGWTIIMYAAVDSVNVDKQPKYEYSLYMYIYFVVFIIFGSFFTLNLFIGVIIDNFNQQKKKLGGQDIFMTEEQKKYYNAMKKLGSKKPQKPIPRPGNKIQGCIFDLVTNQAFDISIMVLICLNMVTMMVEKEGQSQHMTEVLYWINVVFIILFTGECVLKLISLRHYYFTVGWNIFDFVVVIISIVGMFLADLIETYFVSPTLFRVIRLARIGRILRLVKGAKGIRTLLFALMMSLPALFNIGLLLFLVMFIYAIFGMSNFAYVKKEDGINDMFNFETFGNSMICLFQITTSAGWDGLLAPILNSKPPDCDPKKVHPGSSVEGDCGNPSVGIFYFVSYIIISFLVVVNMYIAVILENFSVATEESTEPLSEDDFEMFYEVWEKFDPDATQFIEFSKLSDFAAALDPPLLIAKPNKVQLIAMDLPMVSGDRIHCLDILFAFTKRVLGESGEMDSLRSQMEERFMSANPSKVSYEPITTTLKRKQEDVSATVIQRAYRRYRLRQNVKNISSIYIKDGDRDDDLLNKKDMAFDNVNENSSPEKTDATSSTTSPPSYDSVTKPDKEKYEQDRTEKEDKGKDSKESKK
Description: as §1, §2, §3

NaV1.5 = NaV1.5 (Homo sapiens, UniProt Q14524); conditions: holding potential −80 mV; max concentration tested 33750 nM
Description: as §2, §3

[3] = holding potential −80 mV, −80 mV
[4] = holding potential −75 mV, −75 mV

SMILES	IC50 [1]	IC50 [2, 3]	IC50 (NaV1.5)	IC50 [2, 4]
CC(C)N(CC(CNc1cc(F)c(S(=O)(=O)Nc2ncns2)cc1F)[C@@H](C)N)C[C@@H](C)N (single isomer, unassigned) [Example 39]	> 33800 nM	210 nM	> 33800 nM	–
C[C@@H](N)[C@H](CNc1cc(F)c(S(=O)(=O)Nc2ncns2)cc1F)CC(N)C1(C)CC1 (stereo partly drawn) [Example 18, 4-(((2S)-4-amino-2-((R)-1-aminoethyl)-4-(1-methylcyclopropyl)butyl)amino)-2,5-difluoro-N-(1,2,4-thiadiazol-5-yl)benzenesulfonamide]	> 33800 nM	149 nM	> 33800 nM	–
C[C@@H](N)C(CNc1cc(F)c(S(=O)(=O)Nc2ncns2)cc1F)C(N)C1CCC1 (single isomer, unassigned) [Example 34]	> 33800 nM	–	> 33800 nM	77 nM
CC(C)[C@@H](N)[C@H](CNc1cc(F)c(S(=O)(=O)Nc2ncns2)cc1Cl)CC(C)(C)CCN [Example 27, 4-(((S)-6-amino-2-((R)-1-amino-2-methylpropyl)-4,4-dimethylhexyl)amino)-5-chloro-2-fluoro-N-(1,2,4-thiadiazol-5-yl)benzenesulfonamide bis(2,2,2-trifluoroacetate)]	> 33800 nM	–	> 33800 nM	41 nM
C[C@@H](N)C(CNc1cc(F)c(S(=O)(=O)Nc2ncns2)cc1F)CC1CCCCC1CCN (single isomer, unassigned) [Example 63]	> 33800 nM	156 nM	> 33800 nM	–
C[C@@H](N)C(CNc1cc(F)c(S(=O)(=O)Nc2ncns2)cc1Br)CC1(CCN)CC(F)(F)C1 (single isomer, unassigned) [Example 57]	224 nM	10 nM	> 33800 nM	–
CC(C)C(N)CC(CNc1cc(F)c(S(=O)(=O)Nc2ncns2)cc1Br)[C@@H](C)N (single isomer, unassigned) [Example 109]	697 nM	–	15600 nM	3 nM
C[C@@H](N)[C@H](CNc1cc(F)c(S(=O)(=O)Nc2ncns2)cc1F)CC1(CCN(C)C)CCC1 [Example 43, 4-(((2S,3R)-3-amino-2-((1-(2-(dimethylamino)ethyl)cyclobutyl)methyl)butyl)amino)-2,5-difluoro-N-(1,2,4-thiadiazol-5-yl)benzenesulfonamide]	> 33800 nM	61 nM	> 33800 nM	–
C[C@@H](N)[C@H](CNc1cc(F)c(S(=O)(=O)Nc2ncns2)cc1Cl)CC(N)C(F)(F)F (single isomer, unassigned) [Example 2]	13800 nM	–	> 33800 nM	84 nM
CC(C)(CCN)C[C@@H](CNc1cc(F)c(S(=O)(=O)Nc2ncns2)cc1F)[C@H](N)C1CC1 [Example 28, 4-(((S)-6-amino-2-((R)-amino(cyclopropyl)methyl)-4,4-dimethylhexyl)amino)-2,5-difluoro-N-(1,2,4-thiadiazol-5-yl)benzenesulfonamide]	> 33800 nM	–	> 33800 nM	34 nM
C[C@@H](N)[C@H](CNc1cc(F)c(S(=O)(=O)Nc2ccncn2)cc1Cl)CC(C)(C)CCN [Example 12, 4-(((S)-6-amino-2-((R)-1-aminoethyl)-4,4-dimethylhexyl)amino)-5-chloro-2-fluoro-N-(pyrimidin-4-yl)benzenesulfonamide]	> 33800 nM	–	> 33800 nM	133 nM
C[C@@H](N)C(CNc1ccc(S(=O)(=O)Nc2ncns2)c(F)c1)CC1(CCN)CC(F)(F)C1 (single isomer, unassigned) [Example 59]	> 33800 nM	38 nM	> 33800 nM	–
C[C@@H](N)C(CNc1cc(F)c(S(=O)(=O)Nc2ncns2)cc1F)CC1CC(C)(C)CN1 (single isomer, unassigned) [Example 17]	> 33800 nM	113 nM	> 33800 nM	–
C[C@@H](N)C(CNc1cc(F)c(S(=O)(=O)Nc2ncns2)cc1F)CC1CCCCC1CCN (single isomer, unassigned) [Example 61]	> 33800 nM	16 nM	> 33800 nM	–
C[C@@H](N)[C@H](CNc1ccc(S(=O)(=O)Nc2ncns2)c(F)c1)CC(CCN)C1CC1 (single isomer, unassigned) [Example 19]	> 33800 nM	–	> 33800 nM	31 nM
COc1cc(S(=O)(=O)Nc2ncns2)c(F)cc1NCC(CC1(CN)CCC1)[C@@H](C)N (stereo partly shown) [Example 73]	> 33800 nM	–	> 33800 nM	23 nM
C[C@@H](N)[C@H](CNc1ncc(S(=O)(=O)Nc2ncns2)cc1Br)CC(C)(C)CCN [Example 30, 6-(((S)-6-amino-2-((R)-1-aminoethyl)-4,4-dimethylhexyl)amino)-5-bromo-N-(1,2,4-thiadiazol-5-yl)pyridine-3-sulfonamide]	> 33800 nM	–	> 33800 nM	77 nM
C[C@@H](N)C(CNc1cc(F)c(S(=O)(=O)Nc2ncns2)cc1F)C[C@@]1(C)CCC[C@@H]1CN (single isomer, unassigned) [Example 97]	> 33800 nM	28 nM	> 33800 nM	7 nM
C[C@@H](N)C(CNc1cc(F)c(S(=O)(=O)Nc2ncns2)cc1Cl)CN1CCCC1 (stereo partly shown) [Example 110]	> 33800 nM	–	> 33800 nM	110 nM
Cc1cc(NC[C@H](CC(C)(C)CCN)[C@@H](C)N)c(Cl)cc1S(=O)(=O)Nc1ncns1 [Example 32, 4-(((S)-6-amino-2-((R)-1-aminoethyl)-4,4-dimethylhexyl)amino)-5-chloro-2-methyl-N-(1,2,4-thiadiazol-5-yl)benzenesulfonamide]	> 33800 nM	–	20700 nM	19 nM
C[C@@H](N)[C@H](CNc1ccc(S(=O)(=O)Nc2ncns2)c(F)c1F)CC1(CCN)CCC1 [Example 100]	> 33800 nM	52 nM	> 33800 nM	–
CC[C@@H](N)C(CNc1cc(F)c(S(=O)(=O)Nc2ncns2)c(F)c1F)CC1(CCN)CCC1 (single isomer, unassigned) [Example 22]	12100 nM	26 nM	> 33800 nM	–
CC(C)(CCN)C[C@@H](CNc1cc(F)c(S(=O)(=O)Nc2ncns2)cc1Cl)[C@H](N)CC1CC1 [Example 29, 4-(((S)-6-amino-2-((R)-1-amino-2-cyclopropylethyl)-4,4-dimethylhexyl)amino)-5-chloro-2-fluoro-N-(1,2,4-thiadiazol-5-yl)benzenesulfonamide bis(2,2,2-trifluoroacetate)]	> 33800 nM	–	> 33800 nM	95 nM
C[C@@H](N)[C@H](CNc1cc(F)c(S(=O)(=O)Nc2ncns2)cc1-c1nccs1)CC(C)(C)CCN [Example 40, 4-(((S)-6-amino-2-((R)-1-aminoethyl)-4,4-dimethylhexyl)amino)-2-fluoro-N-(1,2,4-thiadiazol-5-yl)-5-(thiazol-2-yl)benzenesulfonamide]	11600 nM	17 nM	> 33800 nM	–
CCC(N)C[C@@H](CNc1cc(F)c(S(=O)(=O)Nc2ncns2)cc1OC)[C@@H](C)N (stereo partly shown) [Example 83]	> 33800 nM	–	> 33800 nM	48 nM
C[C@@H](N)C(CNc1cc(F)c(S(=O)(=O)Nc2ncns2)cc1F)CC1(C)CCC1CN (single isomer, unassigned) [Example 53]	> 33800 nM	165 nM	> 33800 nM	–
